In ChEMBL document CHEMBL1201862, “PubChem BioAssay data set” (2004):
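1) Cells in 96-well plates. 2) Compound, 48 h, 5 concentrations. 3) Linear interpolation between surrounding doses. 4) Unreached endpoint = highest concentration. The concentration for 50% growth inhibition is given as GI50.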 Calls of active or inactive are those of the source. No stated cut-off is given here; in the data, active = GI50 up to about 1.1 µM and inactive = higher.

Tests used:
Experiment in all cases: inhibition of tumour cell growth, NCI panel, 48 h
EKVX = tested on: EKVX
OVCAR-3 = tested on: OVCAR-3
MDA-N = tested on: MDA-N
SW-620 = tested on: SW-620
TK-10 = tested on: TK-10
OVCAR-4 = tested on: OVCAR-4
SNB-19 = tested on: SNB-19
Hs-578T = tested on: Hs-578T
SR = tested on: SR
SNB-75 = tested on: SNB-75
786-0 = tested on: 786-0
A498 = tested on: A498
SK-MEL-2 = tested on: SK-MEL-2
COLO 205 = tested on: COLO 205
MCF7 = tested on: MCF7
SK-MEL-5 = tested on: SK-MEL-5
HOP-92 = tested on: HOP-92
U-251 = tested on: U-251
MDA-MB-435 = tested on: MDA-MB-435
OVCAR-5 = tested on: OVCAR-5

Row | Structure (SMILES) | GI50 (EKVX) | GI50 (OVCAR-3) | GI50 (MDA-N) | GI50 (SW-620) | GI50 (TK-10) | GI50 (OVCAR-4) | GI50 (SNB-19) | GI50 (Hs-578T) | GI50 (SR) | GI50 (SNB-75) | GI50 (786-0) | GI50 (A498) | GI50 (SK-MEL-2) | GI50 (COLO 205) | GI50 (MCF7) | GI50 (SK-MEL-5) | GI50 (HOP-92) | GI50 (U-251) | GI50 (MDA-MB-435) | GI50 (OVCAR-5)
1 | COc1cc(C2c3cc4c(cc3OC(NN)C2C)OCO4)cc(OC)c1OC (configuration not stated) | 10.2 µM (inactive) | 0.265 µM (active) | 0.123 µM (active) | 0.447 µM (active) | 28.3 µM (inactive) | 23.6 µM (inactive) | 0.813 µM (active) | 0.234 µM (active) | 0.287 µM (active) | 0.289 µM (active) | 0.653 µM (active) | 0.257 µM (active) | 0.647 µM (active) | 0.575 µM (active) | 0.443 µM (active) | 0.478 µM (active) | 2.04 µM (inactive) | 0.403 µM (active) | 0.157 µM (active) | –
2 | CNC(=S)N1CCN(C(C)=O)C1=S | 25.1 µM (inactive) | 35.4 µM (inactive) | 51.8 µM (inactive) | 86.5 µM (inactive) | > 100 µM (inactive) | 6.56 µM (inactive) | – | 23.6 µM (inactive) | 23.7 µM (inactive) | 26.5 µM (inactive) | > 100 µM (inactive) | 35.6 µM (inactive) | 2.25 µM (inactive) | 97.5 µM (inactive) | 42 µM (inactive) | 71.4 µM (inactive) | 82.2 µM (inactive) | 4.02 µM (inactive) | 22.2 µM (inactive) | > 100 µM (inactive)
3 | O=c1cc(-c2ccccc2)[nH]c2ccc(N3CCOCC3)cc12 | 53 µM (inactive) | 0.0148 µM (active) | < 0.01 µM (active) | 0.0371 µM (active) | 55 µM (inactive) | 20.1 µM (inactive) | 0.0434 µM (active) | 0.0239 µM (active) | < 0.017 µM (active) | 0.0143 µM (active) | 0.0363 µM (active) | 0.0413 µM (active) | 22.5 µM (inactive) | 0.0182 µM (active) | 0.0327 µM (active) | < 0.0233 µM (active) | 0.0622 µM (active) | 0.0185 µM (active) | < 0.01 µM (active) | –
4 | CCC(C)C(=O)OCC(=O)c1ccc(-c2ccccc2)cc1 (configuration not stated) | 25.6 µM (inactive) | 37.8 µM (inactive) | 45.7 µM (inactive) | 53.6 µM (inactive) | 66.4 µM (inactive) | – | 80.7 µM (inactive) | 45.9 µM (inactive) | 31.6 µM (inactive) | 80.7 µM (inactive) | > 100 µM (inactive) | 32.7 µM (inactive) | 41.6 µM (inactive) | > 100 µM (inactive) | 44.8 µM (inactive) | 24.7 µM (inactive) | > 100 µM (inactive) | 50.5 µM (inactive) | 99.1 µM (inactive) | > 100 µM (inactive)
5 | COc1ccc(N2C(=O)CSC2c2cc(OC)c(OC)c(OC)c2)cc1 (configuration not stated) | 28.4 µM (inactive) | 25.5 µM (inactive) | 9.68 µM (inactive) | 34 µM (inactive) | 43.2 µM (inactive) | 42.5 µM (inactive) | 23.2 µM (inactive) | 48.6 µM (inactive) | 5.41 µM (inactive) | – | 21.4 µM (inactive) | 29 µM (inactive) | 33.9 µM (inactive) | 25.4 µM (inactive) | 37.6 µM (inactive) | 20.9 µM (inactive) | 54.6 µM (inactive) | 18.9 µM (inactive) | 10.9 µM (inactive) | 22.3 µM (inactive)
6 | O=c1oc2ccccc2cc1/C=N/N1C(=S)N(c2ccccc2)C(=N\c2ccccc2)/C1=N/c1ccccc1 | > 100 µM (inactive) | > 100 µM (inactive) | 20.5 µM (inactive) | 8.71 µM (inactive) | > 100 µM (inactive) | – | > 100 µM (inactive) | > 100 µM (inactive) | > 100 µM (inactive) | 1.65 µM (inactive) | > 100 µM (inactive) | – | > 100 µM (inactive) | > 100 µM (inactive) | > 100 µM (inactive) | 87.7 µM (inactive) | > 100 µM (inactive) | > 100 µM (inactive) | > 100 µM (inactive) | > 100 µM (inactive)
7 | Clc1cc(OCC23CC4CC(CC(C4)C2)C3)nc(OCC23CC4CC(CC(C4)C2)C3)n1 | > 100 µM (inactive) | > 100 µM (inactive) | > 100 µM (inactive) | > 100 µM (inactive) | > 100 µM (inactive) | > 100 µM (inactive) | > 100 µM (inactive) | > 100 µM (inactive) | > 100 µM (inactive) | > 100 µM (inactive) | > 100 µM (inactive) | > 100 µM (inactive) | > 100 µM (inactive) | > 100 µM (inactive) | > 100 µM (inactive) | > 100 µM (inactive) | – | > 100 µM (inactive) | > 100 µM (inactive) | > 100 µM (inactive)
8 | O=C(CCN1CCOCC1)Nc1ccc(F)cc1F | > 100 µM (inactive) | > 100 µM (inactive) | > 100 µM (inactive) | > 100 µM (inactive) | > 100 µM (inactive) | > 100 µM (inactive) | > 100 µM (inactive) | > 100 µM (inactive) | > 100 µM (inactive) | – | > 100 µM (inactive) | > 100 µM (inactive) | > 100 µM (inactive) | > 100 µM (inactive) | > 100 µM (inactive) | > 100 µM (inactive) | > 100 µM (inactive) | > 100 µM (inactive) | > 100 µM (inactive) | > 100 µM (inactive)
9 | CC(=O)Nc1ccc(N2C(=O)/C(=C\c3cccc(Oc4ccccc4)c3)SC2c2ccccc2)cc1 (configuration not stated) | 42.7 µM (inactive) | 25.5 µM (inactive) | 18.9 µM (inactive) | 30.8 µM (inactive) | 34.4 µM (inactive) | 32.4 µM (inactive) | 19.8 µM (inactive) | 12.7 µM (inactive) | 21 µM (inactive) | – | 37.8 µM (inactive) | 50.1 µM (inactive) | 30.4 µM (inactive) | 70.3 µM (inactive) | 21 µM (inactive) | 23.7 µM (inactive) | 16.6 µM (inactive) | 14.7 µM (inactive) | 32.5 µM (inactive) | > 100 µM (inactive)
10 | CCOC(=O)Nc1sc2c(c1C#N)CC(C)CC2 (configuration not stated) | 24.7 µM (inactive) | 5.87 µM (inactive) | 1.6 µM (inactive) | 4.74 µM (inactive) | 6.62 µM (inactive) | 18.7 µM (inactive) | 3.16 µM (inactive) | 8.59 µM (inactive) | 1.4 µM (inactive) | 2.82 µM (inactive) | 10.1 µM (inactive) | – | 2.16 µM (inactive) | 4.17 µM (inactive) | 3.96 µM (inactive) | 4.8 µM (inactive) | 25.4 µM (inactive) | 5.42 µM (inactive) | 1.32 µM (inactive) | 16.3 µM (inactive)
11 | C=CCN1C[C@@H](C)N([C@@H](c2ccc(C(=O)N(CC)CC)cc2)c2cccc(OC)c2)C[C@@H]1C | > 100 µM (inactive) | > 100 µM (inactive) | > 100 µM (inactive) | > 100 µM (inactive) | – | > 100 µM (inactive) | > 100 µM (inactive) | > 100 µM (inactive) | > 100 µM (inactive) | – | > 100 µM (inactive) | > 100 µM (inactive) | > 100 µM (inactive) | > 100 µM (inactive) | 49.8 µM (inactive) | > 100 µM (inactive) | > 100 µM (inactive) | > 100 µM (inactive) | > 100 µM (inactive) | > 100 µM (inactive)
